We go through one compound from publication PMC6934184, “Selective DNA-PKcs inhibition extends the therapeutic index of localized radiotherapy and chemotherapy” (The Journal of Clinical Investigation, 2019).

This assay deals with T1, MYLK (MLCK) (Homo sapiens, UniProt Q15746).
T1 construct: purchased Thermo Fisher Scientific (Life Technologies) SelectScreen
Nature of the assay: SelectScreen LanthaScreen. It is filed as binding. The note with it: read-out: % displacement. The gist of the method: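 Percent values come from Thermo SelectScreen profiling of NU5455, combining activity and binding assays. CSF1R was run in Z'LYTE format at Km app ATP, and CAMK1 in Adapta format with ATP listed at 10.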

T1 sequence (Q15746 whole entry): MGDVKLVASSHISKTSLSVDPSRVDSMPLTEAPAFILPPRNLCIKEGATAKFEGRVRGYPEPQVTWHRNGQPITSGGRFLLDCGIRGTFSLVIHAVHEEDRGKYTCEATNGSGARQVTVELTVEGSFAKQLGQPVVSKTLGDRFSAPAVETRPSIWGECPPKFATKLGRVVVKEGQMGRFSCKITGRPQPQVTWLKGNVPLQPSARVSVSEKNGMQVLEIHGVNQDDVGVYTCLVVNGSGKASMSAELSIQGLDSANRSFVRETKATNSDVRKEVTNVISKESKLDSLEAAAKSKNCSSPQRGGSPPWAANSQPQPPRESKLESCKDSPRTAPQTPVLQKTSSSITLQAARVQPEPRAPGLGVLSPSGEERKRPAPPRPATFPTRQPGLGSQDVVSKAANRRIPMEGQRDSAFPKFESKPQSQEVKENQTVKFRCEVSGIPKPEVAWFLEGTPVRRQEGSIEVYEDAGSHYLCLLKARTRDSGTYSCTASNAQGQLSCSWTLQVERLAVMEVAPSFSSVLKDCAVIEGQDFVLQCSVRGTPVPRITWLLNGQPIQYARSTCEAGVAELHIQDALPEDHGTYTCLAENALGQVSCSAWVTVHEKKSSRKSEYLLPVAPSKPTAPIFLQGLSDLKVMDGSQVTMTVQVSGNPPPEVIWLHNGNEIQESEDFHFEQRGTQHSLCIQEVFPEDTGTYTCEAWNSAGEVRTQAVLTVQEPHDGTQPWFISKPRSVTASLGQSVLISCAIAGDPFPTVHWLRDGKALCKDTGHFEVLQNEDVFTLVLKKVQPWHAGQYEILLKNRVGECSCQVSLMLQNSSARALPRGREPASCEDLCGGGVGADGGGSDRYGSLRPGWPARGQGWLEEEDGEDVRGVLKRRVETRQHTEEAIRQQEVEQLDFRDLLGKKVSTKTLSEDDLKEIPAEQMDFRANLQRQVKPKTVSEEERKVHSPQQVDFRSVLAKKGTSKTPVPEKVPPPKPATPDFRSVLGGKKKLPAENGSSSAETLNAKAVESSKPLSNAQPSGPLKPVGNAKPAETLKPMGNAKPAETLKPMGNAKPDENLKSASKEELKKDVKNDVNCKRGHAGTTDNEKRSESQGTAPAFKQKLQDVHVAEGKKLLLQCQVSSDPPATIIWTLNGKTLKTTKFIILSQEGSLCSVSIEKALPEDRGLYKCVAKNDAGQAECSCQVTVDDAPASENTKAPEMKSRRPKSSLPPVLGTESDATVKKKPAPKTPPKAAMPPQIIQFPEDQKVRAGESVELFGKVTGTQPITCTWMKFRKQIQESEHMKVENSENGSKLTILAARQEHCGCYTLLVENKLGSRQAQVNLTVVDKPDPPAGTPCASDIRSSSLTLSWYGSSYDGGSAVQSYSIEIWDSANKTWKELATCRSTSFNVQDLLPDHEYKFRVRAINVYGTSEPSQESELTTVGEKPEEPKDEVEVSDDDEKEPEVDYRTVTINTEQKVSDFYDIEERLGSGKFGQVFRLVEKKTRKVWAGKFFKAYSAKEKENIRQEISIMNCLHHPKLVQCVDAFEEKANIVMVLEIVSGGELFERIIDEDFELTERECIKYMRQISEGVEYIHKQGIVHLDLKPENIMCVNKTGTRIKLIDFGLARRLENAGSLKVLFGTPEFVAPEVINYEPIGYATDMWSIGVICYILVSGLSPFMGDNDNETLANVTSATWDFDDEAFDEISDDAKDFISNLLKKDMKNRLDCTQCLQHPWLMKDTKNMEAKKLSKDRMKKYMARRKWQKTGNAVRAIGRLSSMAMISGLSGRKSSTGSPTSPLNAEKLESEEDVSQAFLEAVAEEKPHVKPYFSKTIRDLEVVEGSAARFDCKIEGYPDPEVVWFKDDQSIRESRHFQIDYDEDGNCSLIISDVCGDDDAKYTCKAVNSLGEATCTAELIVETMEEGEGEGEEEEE

`CN(C(=O)CN1CCOCC1)c1ccc2sc3c(-c4cccc5c(=O)cc(N6CC7CCC(C6)O7)oc45)cccc3c2c1` [NU5455]: the inhibition at 1 µM came out at 0.2%.
